Data from patent US12415771B2, “Compounds for the treatment of neuromuscular disorders” (NMD PHARMA A/S, priority 2019, dated 2025).
Like-named read-outs stand apart in the source and are kept apart here.

Experiments:
CIC-1 ion channel = biological target: T1, CIC-1 ion channel (Rattus norvegicus, UniProt P35524); experiment: Electrophysiological measurement (Gm, three micro-electrode technique) of compound inhibition of CIC-1 in rat soleus muscle fibres; format: cell-based; conditions: whole rat soleus muscle, Gm at four increasing concentrations, approx. 30° C., mean ± spread
T1 construct: from tissue; host or cells: intact soleus muscle of 12-14 week old Wistar rats
T1 sequence (P35524 1-994): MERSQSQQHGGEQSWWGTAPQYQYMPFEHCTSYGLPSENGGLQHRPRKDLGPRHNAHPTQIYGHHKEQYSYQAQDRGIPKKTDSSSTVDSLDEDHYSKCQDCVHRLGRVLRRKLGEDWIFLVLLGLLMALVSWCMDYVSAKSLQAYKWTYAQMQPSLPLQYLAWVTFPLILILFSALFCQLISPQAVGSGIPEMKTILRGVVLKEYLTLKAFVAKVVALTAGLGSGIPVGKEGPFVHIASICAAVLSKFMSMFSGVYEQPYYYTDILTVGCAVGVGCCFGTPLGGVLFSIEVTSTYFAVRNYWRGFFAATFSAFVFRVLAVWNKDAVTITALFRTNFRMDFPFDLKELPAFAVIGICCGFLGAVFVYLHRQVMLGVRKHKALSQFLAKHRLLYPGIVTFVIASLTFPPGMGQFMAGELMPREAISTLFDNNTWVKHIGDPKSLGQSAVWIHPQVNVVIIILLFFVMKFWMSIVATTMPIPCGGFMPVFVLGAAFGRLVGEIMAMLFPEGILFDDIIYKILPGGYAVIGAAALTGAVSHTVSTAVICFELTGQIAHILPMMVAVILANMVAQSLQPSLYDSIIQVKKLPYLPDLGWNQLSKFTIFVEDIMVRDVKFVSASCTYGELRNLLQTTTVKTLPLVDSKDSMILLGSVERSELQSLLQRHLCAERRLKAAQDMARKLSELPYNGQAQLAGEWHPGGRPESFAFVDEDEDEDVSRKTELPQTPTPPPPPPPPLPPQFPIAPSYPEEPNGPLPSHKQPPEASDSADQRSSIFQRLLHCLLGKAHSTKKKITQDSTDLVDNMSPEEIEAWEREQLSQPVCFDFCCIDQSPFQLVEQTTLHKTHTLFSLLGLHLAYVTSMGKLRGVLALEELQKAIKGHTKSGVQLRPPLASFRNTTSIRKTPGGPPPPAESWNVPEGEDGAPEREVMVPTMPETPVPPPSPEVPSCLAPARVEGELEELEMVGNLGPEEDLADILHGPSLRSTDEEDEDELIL

female Lewis rats = experiment: In situ isometric hindlimb force in anaesthetised rats under partial neuromuscular block by Cisatracurium; format: in vivo; conditions: Rattus norvegicus, iv, read-out: increase in tetanic force
Method: Isometric hindlimb force was measured in 12-week old female Lewis rats in the presence and absence of compound.
Rats were placed under anesthesia with isoflurane (2-4%), intubated and subsequently connected to a micro ventilator (Microvent 1, Hallowell EMC, US). Two stimulation electrodes were inserted through the skin to stimulate the sciatic nerve. A small incision was made proximal to the ankle, to expose the Achilles tendon, which was tied by cotton string, and connected to a force transducer (Fort250, World Precision Instruments) with adjustable position (Vernier control). The Achilles tendon was then cut distal to the attached cotton string. The rat was placed on a heated pad, and to prevent movement artefacts from contraction of the ankle dorsiflexors, the foot was fixated by tape on a footplate.
Muscle contractile properties were assessed by applying an electrical current (under supramaximal voltage conditions) to the nerve and recording the force generated by the muscle. The muscle was stretched until maximal force was obtained, when assessed by 2 Hz stimulation. Isometric force was measured every 30 seconds at 12 Hz (Twitch), 10 pulses, and at every 5 minutes at 80 Hz (Tetanic) for 1 second (80 pulses). This stimulation pattern was employed throughout the experiment, expect in few cases where 80 Hz stimulation was replaced by 12 Hz (10 pulses). […] When the level of neuromuscular inhibition was stable, the test article was injected i.v. at the chosen concentration. The effect of test article was assessed on its ability to increase force generated from the stimulation pattern applied. The effect was assessed in the ability to increase force per se (tetanic, 80 Hz, stimulation), and the ratio between individual twitch peaks (12 Hz stimulation). The effect was monitored for at least 1 hour after injection of test article. In addition, the time from injection of test article to maximal effect on force (both twitch and tetanic) was noted and the time for the effect to disappear (return to baseline), if possible. When appropriate the infusion of neuromuscular blocking agent was ceased, with the stimulation pattern continued, and the return of force to control levels was monitored. Animals were sacrificed by cervical dislocation while still fully sedated.

[1] = system: isolated rat soleus muscles; experiment: Recovery of nerve-stimulated contractile force in isolated rat soleus nerve-muscle preparation exposed to tubocurarine; conditions: 40 min, read-out: Point increase (%) of initial force that was restored
Method: Recovery of force is quantified as the percentage of the force prior to tubocurarine that is recovered by the compound.
The current disclosure relates to compounds that inhibit CIC-1 ion channels and increase muscle excitability and thereby improve muscle function in clinical conditions where muscle activation is failing. Such conditions result in loss of contractile function of skeletal muscle, weakness and excessive fatigue. In this series of experiments the compounds were tested for their ability to restore contractile function of isolated rat muscle when the neuromuscular transmission had been compromised akin to neuromuscular disorders.
Experimentally, soleus muscles from 4-5 wk old rats were isolated with the motor nerve remaining attached. The nerve-muscle preparations were mounted in experimental setups that enabled electrical stimulation of the motor nerve. Stimulation of the motor nerve led to activation of the muscle fibres and ensuing force production that was recorded.
After mounting the nerve-muscle preparation in the experimental setup, the contractile function of the muscle was initially assessed under the control conditions (FIG. 2A). […] The experimental condition mimics the failing neuromuscular transmission in a range of neuromuscular disorders. After addition of tubocurarine the contractile force declined over the next 90 mins to 10-50% of the control force. 50 μM of the test compound was then added and the contractile force recovered despite the continued presence of tubocurarine. To quantify the ability of the compound to restore force the percentage of the initial force that was restored was determined after 40 mins of compound exposure (FIG. 2B) and the point increase is reported in Table 3.

[2] = system: isolated rat soleus muscles; experiment: as above; conditions: FIG. 2: 50 μM compound added after 90 min incubation in tubocurarine, 3 muscles
[3] = 50 μM test compound, after 40 mins exposure, 115 nM tubocurarine for 90 mins, rat soleus

| Compound | EC50 (CIC-1 ion channel) [µM] | activation at 50 µM [1, 3] [%] | activation at 50 µM ([1]; Rattus norvegicus) [%] | also measured |
| --- | --- | --- | --- | --- |
| CCC(F)(F)c1cc(Br)ccc1O[C@@H](C)C(=O)O [Compound A-3, (2S)-2-[4-bromo-2-(1,1-difluoropropyl)phenoxy]propanoic acid] | 3.5 ± 0.4 | 54 |  | change in vivo at 17.5 mg/kg (female Lewis rats; 17.5 mg/kg i.v., 80 Hz stimulation, Cisatracurium block): 64%; average force (AUC) relative to initial force [2]: recovered |
| CCC(F)(F)c1cc(Cl)ccc1O[C@@H](CF)C(=O)O [Compound A-22, (2R)-2-[4-chloro-2-(1,1-difluoropropyl)phenoxy]-3-fluoropropanoic acid] | 3.3 ± 1.2 |  | 65 | change in vivo at 10.4 mg/kg (female Lewis rats): 57% |
| C#Cc1ccc(O[C@@H](C)C(=O)O)c(C(F)(F)CC)c1 [Compound A-23, (2S)-2-[2-(1,1-difluoropropyl)-4-ethynylphenoxy]propanoic acid] | 6.1 ± 1.1 | 37 |  | change in vivo at 18.8 mg/kg (female Lewis rats; 18.8 mg/kg i.v., 80 Hz stimulation, Cisatracurium block): 40% |
| C[C@H](Oc1cc(F)c(Br)cc1C(C)(F)F)C(=O)O [Compound A-29, (2S)-2-[4-bromo-2-(1,1-difluoroethyl)-5-fluorophenoxy]propanoic acid] | 5.5 ± 1.7 |  | 46 | change in vivo at 22.9 mg/kg (female Lewis rats): 76% |
| CCC(F)(F)c1cc(Br)c(F)cc1OCC(=O)O [Compound A-31, 2-[4-bromo-2-(1,1-difluoropropyl)-5-fluorophenoxy]acetic acid] | 5.5 ± 0.2 | 43 |  | change in vivo at 11.4 mg/kg (female Lewis rats; 11.4 mg/kg i.v., 80 Hz stimulation, Cisatracurium block): 14% |
| CCC(F)(F)c1cc(Cl)c(F)cc1O[C@@H](C)C(=O)O [Compound A-32, (2S)-2-[4-chloro-2-(1,1-difluoropropyl)-5-fluorophenoxy]propanoic acid] | 2.3 ± 0.6 |  | 41 | change in vivo at 11.2 mg/kg (female Lewis rats): 75% |
